{"source": "PubChem BioAssay (NCI)", "assay_in_all_cases": "inhibition of tumour cell growth, NCI panel, 48 h", "key": {"PC-3 prostate": {"system": "PC-3 prostate"}, "UACC-62 melanoma": {"system": "UACC-62 melanoma"}, "HL-60(TB) leukemia": {"system": "HL-60(TB) leukemia"}, "NCI/ADR-RES ovarian": {"system": "NCI/ADR-RES ovarian"}, "UACC-257 melanoma": {"system": "UACC-257 melanoma"}, "SK-MEL-5 melanoma": {"system": "SK-MEL-5 melanoma"}, "M14 melanoma": {"system": "M14 melanoma"}, "SNB-19 CNS": {"system": "SNB-19 CNS"}, "BT-549 breast": {"system": "BT-549 breast"}, "HS 578T breast": {"system": "HS 578T breast"}, "SR leukemia": {"system": "SR leukemia"}, "MCF7 breast": {"system": "MCF7 breast"}, "HCT-15 colon": {"system": "HCT-15 colon"}, "SF-268 CNS": {"system": "SF-268 CNS"}, "SF-295 CNS": {"system": "SF-295 CNS"}}, "note": "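Assay format: 96-well plates, 48-hour exposure. The concentration for 50% growth inhibition is given as GI50. Definition used: TGI = concentration required for complete inhibition of growth.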"}
{"smiles": "CCOC(=O)c1cc(C(=O)c2cc(OC)cc(OC)c2)n2ncc3ccccc3c12", "values": [{"measurement": "GI50", "setting": "PC-3 prostate", "result": 839, "unit": "nM"}, {"measurement": "TGI", "setting": "PC-3 prostate", "result": "> 100000", "unit": "nM"}, {"measurement": "GI50", "setting": "UACC-62 melanoma", "result": 692, "unit": "nM"}, {"measurement": "TGI", "setting": "UACC-62 melanoma", "result": "> 100000", "unit": "nM"}, {"measurement": "GI50", "setting": "HL-60(TB) leukemia", "result": 820, "unit": "nM"}, {"measurement": "TGI", "setting": "HL-60(TB) leukemia", "result": "> 100000", "unit": "nM"}, {"measurement": "GI50", "setting": "NCI/ADR-RES ovarian", "result": 476, "unit": "nM"}, {"measurement": "TGI", "setting": "NCI/ADR-RES ovarian", "result": "> 100000", "unit": "nM"}, {"measurement": "GI50", "setting": "UACC-257 melanoma", "result": "> 100000", "unit": "nM"}, {"measurement": "TGI", "setting": "UACC-257 melanoma", "result": "> 100000", "unit": "nM"}, {"measurement": "GI50", "setting": "SK-MEL-5 melanoma", "result": 623, "unit": "nM"}, {"measurement": "TGI", "setting": "SK-MEL-5 melanoma", "result": "> 100000", "unit": "nM"}, {"measurement": "GI50", "setting": "M14 melanoma", "result": 485, "unit": "nM"}, {"measurement": "TGI", "setting": "M14 melanoma", "result": "> 100000", "unit": "nM"}, {"measurement": "GI50", "setting": "SNB-19 CNS", "result": 1570, "unit": "nM"}, {"measurement": "TGI", "setting": "SNB-19 CNS", "result": "> 100000", "unit": "nM"}, {"measurement": "GI50", "setting": "BT-549 breast", "result": 1180, "unit": "nM"}, {"measurement": "TGI", "setting": "BT-549 breast", "result": "> 100000", "unit": "nM"}, {"measurement": "GI50", "setting": "HS 578T breast", "result": 1840, "unit": "nM"}, {"measurement": "TGI", "setting": "HS 578T breast", "result": "> 100000", "unit": "nM"}, {"measurement": "GI50", "setting": "SR leukemia", "result": 442, "unit": "nM"}, {"measurement": "TGI", "setting": "SR leukemia", "result": "> 100000", "unit": "nM"}, {"measurement": "GI50", "setting": "MCF7 breast", "result": 410, "unit": "nM"}, {"measurement": "TGI", "setting": "MCF7 breast", "result": "> 100000", "unit": "nM"}, {"measurement": "GI50", "setting": "HCT-15 colon", "result": 484, "unit": "nM"}, {"measurement": "TGI", "setting": "HCT-15 colon", "result": "> 100000", "unit": "nM"}, {"measurement": "GI50", "setting": "SF-268 CNS", "result": 1590, "unit": "nM"}, {"measurement": "TGI", "setting": "SF-268 CNS", "result": "> 100000", "unit": "nM"}, {"measurement": "GI50", "setting": "SF-295 CNS", "result": 483, "unit": "nM"}, {"measurement": "TGI", "setting": "SF-295 CNS", "result": "> 100000", "unit": "nM"}]}
